In patent US20020132845A1, “Compositions and methods for the prevention and treatment of tissue ischemia” (priority 2000, published 2002):
Entries after “also recorded” stand apart in the source; their conditions may differ.

Tests used:
[1] = tested on: transient focal cerebral ischemia induced by Middle Cerebral Artery Occlusion (MCAO); experiment: Animal cerebral infarct assay: two-hour Middle Cerebral Artery Occlusion (MCAO) with reperfusion; format: in vivo, rat; details: for total infarct volume relative to control animals: administered (I.V.) at the time of MCAO; for total ischemic damage relative to control animals: I.V. at the time of MCAO; for reduction of infarct volume: administered at reperfusion; for tissue edema relative to controls / total infarct volume relative to controls / total ischemic damage relative to controls: administered at the time of reperfusion; for edema relative to control animals: at the time of MCAO
Description: This assay is used to assess the efficacy of the test agents in protecting the brain against necrosis following cerebral ischemia induced in rats. Middle Cerebral Artery Occlusion (MCAO) is a widely used technique to induce transient focal cerebral ischemia in animal models. […] Furthermore, this model accurately represents the involvement of middle cerebral artery (MCA), the most affected vessel in human stroke, and also allows reperfusion as it happens in humans. MCAO by a two-hour occlusion is used to produce the maximum size of cortical infarction without increased mortality at twenty-four hours. Male Wistar rats (Hadan, Ind.) weighing 300-350 g were allowed free access to water and commercial rodent diet under standard laboratory conditions. The room temperature was maintained at 20-23° C. and room illumination was on a 12/12-hour light/dark cycle. The rats were acclimatized to the laboratory environment 5 to 7 days prior to the study. Before surgery, the animals were fasted overnight, but had free access to water. The rats were anesthetized with 3.0% isoflurane (Aerrane, Front Dodge, Iowa) in […] and the animal's neck was shaved and sterilized before the operation. The animals were subjected to two hours MCAO using a modified intraluminal filament technique. A midline incision on the ventral part of the neck was made to expose external and internal carotid arteries. The right external and common carotid arteries were ligated by a suture (silk 5/0, Carlisle Laboratories, Farmers Branch, Tex.) and the right internal artery was temporarily ligated by a microvascular clip (Fine Science Tool Inc., Foster City, Calif.). A small incision was made in the common carotid artery and a nylon filament, its tip rounded by heating, prepared from a fishing line (Stren Fishing Lines, Wilmington, Del.) was inserted from the right common carotid artery. The filament was advanced into the internal carotid artery 18-20 mm from the point of bifurcation of internal and external arteries and a suture was tightly ligated around the filament. Two hours post occlusion, the animals were re-anesthetized to allow reperfusion for the remaining of the experiment by removal of the filament. The anesthetized animal were placed on a stereotaxic apparatus (Harvard Apparatus, S. Natick, Mass.). Anesthesia was maintained by inhalation of 3.0% isoflurane in […] throughout the entire procedure. The scalp was shaved and sterilized prior to surgery. A midline sagittal incision about 3 cm long was made slightly behind the eyes to expose the skull. The skull was scraped with a rounded end spatula to remove periosteal connective tissue. A bur hole was placed 1.5 mm lateral, 1 mm posterior to the left of the bregma to mark the left lateral ventricle. A brain infusion cannula (ALZET CO. Palo Alto, Calif.) was inserted 4 mm deep into the hole. The desired depth was adjusted by attaching spacers to the cannula. The cannula was attached to a 4-cm silastic catheter (Helix Medical Inc.) fixed in place with dental cement (Ketac-cement, Norristown, Pa.). The catheter was either attached to a primed osmotic pump placed subcutaneously between the shoulder blades for permanent infusion or to a syringe for a short infusion. Anesthesia was maintained by inhalation of 3.0% isoflurane in […] throughout the entire procedure. The exterior site of the right femoral vein was shaved and sterilized prior to surgery. A 3 cm incision was made in the right groin region and the femoral vein was isolated. A small incision was made on the femoral vein temporarily ligated with a microvascular clip to introduce and advance a polyethylene (PE-50) catheter (Becton. Dickinson and Co., Sparks, Md.). The catheter was secured in place with suture (silk 5/0, Carlisle Laboratories, Farmers Branch, Tex.). The other end of the catheter was attached to a syringe filled with the heparinized saline for the bolus injection. […]

[2] = tested on: congestive heart failure (CHF); experiment: Model of congestive heart failure: permanent ligation of the left coronary artery (Example 6); format: in vivo, rat; details: after permanent ligation of the left coronary artery
[3] = Experiments performed in support of the invention: synergy of hesperetin with tocopherols (test not specified)
[4] = oral gavage pre-MCAO, dose not given
[5] = oral gavage pre-MCAO (3 hours), 10 mg/kg
[6] = listed as gamma-tocopherol metabolite enriched composition
[7] = listed as gamma-tocopherol enriched composition
[8] = listed as gamma-tocopherol enriched tocopherol composition

SMILES: Cc1c(C)c2c(c(C)c1O)CC[C@@](C)(CCC[C@H](C)CCC[C@H](C)CCCC(C)C)O2 (relative stereo) [alpha-tocopherol, [2R-2R*(4R*,8R*)]-3,4-dihydro-2,5,7,8-tetramethyl-2-(4,8,12-trimethyltridecyl)-2H-1-benzopyran-6-ol, reference compound]
- reduction of infarct size ([1]; 6 mg/kg at MCAO (IV)): 42%
- reduction of infarct size [1, 4]: 43%

SMILES: Cc1cc(O)cc2c1O[C@](C)(CCC[C@H](C)CCC[C@H](C)CCCC(C)C)CC2 (relative stereo) [delta-tocopherol, [2R-[2R*(4R*,8R*)]]-3,4-dihydro-2,8-dimethyl-2-(4,8,12-trimethyltridecyl)-2H-1-benzo-pyran-6-ol]
- reduction of infarct size ([1]; IV, 0.60 mg/kg): 52%
- total infarct volume relative to control animals [1]: reduce total infarct size
- reduction of infarct size [1, 4]: 48%
- reduction of total infarct volume compared with alpha-tocopherol ([1]; rat, in vivo): more effective

SMILES: Cc1cc(O)c(C)c2c1OC(C)(CCCC(C)CCCC(C)CCCC(C)C)CC2 (stereo not drawn) [beta-tocopherol, 3,4-dihydro-2,5,8-trimethyl-2-(4,8,12-trimethyltridecyl)-2H-1-benzopyran-6-ol]
- total infarct size ([1]; gavage, three hours pre-MCAO): reduce total infarct size
- reduction of infarct size [1, 5]: 76%

SMILES: C[C@H](CS)C(=O)N1CCC[C@H]1C(=O)O [captopril, 1-[(2S)-3-mercapto-2-methylpropionyl]-L-proline]
- heart weight [2]: reduced heart weight
- left ventricular systolic pressure (LVSP) [2]: reduced LVSP

SMILES: Cc1c(O)cc2c(c1C)OC(C)(CCC(=O)O)CC2 (stereo not shown) [gamma-CEHC, 6-hydroxy-2,7,8-trimethylchroman-2-propanoic acid]
- total ischemic damage relative to control animals [1]: significantly reduced
- decrease of neuronal damage ([1]; IV at MCAO, drug range 0.1-5 mg/kg): 50-65%
- total infarct volume relative to control animals [1]: reduce total infarct size; also recorded: significantly reduced
- total infarct volume relative to control animals [1, 6]: reduce total infarct
- reduction of infarct volume ([1]; 10 mg/kg): 52%
- tissue edema relative to controls [1]: reduction
- total infarct volume relative to controls [1]: reduce total infarct size
- total ischemic damage relative to controls [1]: reduction
- total infarct volume relative to controls [1, 6]: reduction; also recorded: reduce total infarct
- edema relative to control animals [1]: reduced tissue edema

SMILES: Cc1c(O)cc2c(c1C)OC(C)(CCCC(C)CCCC(C)CCCC(C)C)CC2 (stereo not shown) [gamma-tocopherol, 3,4-dihydro-2,7,8-trimethyl-2-(4,8,12-trimethyltridecyl)-2H-1-benzyopyran-6-ol]
- reduction of infarct size ([1]; 6 mg/kg at MCAO (IV)): 82%
- total ischemic damage relative to control animals [1]: significantly reduced
- reduction of infarct size ([1]; IV, 0.6 mg/kg, at MCAO): 81%
- total infarct volume relative to control animals [1, 7]: reduce total infarct size
- total infarct volume relative to control animals [1, 8]: significantly reduced; also recorded: reduce total infarct
- reduction of infarct volume ([1]; 10 mg/kg): 70%
- tissue edema relative to controls [1]: reduction
- total ischemic damage relative to controls [1]: reduction
- total infarct volume relative to controls [1, 7]: reduce total infarct size; also recorded: reduction
- total infarct volume relative to controls [1, 8]: reduce total infarct
- reduction of tissue edema compared with alpha- or delta-tocopherol ([1]; at the same concentration): more effective
- reduction of total infarct volume compared with alpha- or delta-tocopherol ([1]; at the same concentration): more effective
- edema relative to control animals [1]: significantly reduced
- mean reduction of infarct volumes ([1]; intraperitoneal, 10-20 mg/kg, at MCAO or 3 hours post-reperfusion): 20-57%
- reduction of infarct size / infarct volume ([1]; oral gavage 3 hours pre-MCAO, 4 mg/kg): 53%
- reduction of infarct size [1, 5]: 77%

SMILES: COc1ccc([C@@H]2CC(=O)c3c(O)cc(O)cc3O2)cc1O [hesperetin, (S)-2,3-dihydro-5,7-dihydroxy-2-(3-hydroxy-4-methoxyphenyl)-4H-1benzopyran-4-one]
- synergy with gamma-tocopherol and delta-tocopherol [3]: act synergistically
